In patent US9278902B2, “Crystal form of prostaglandin analogue, and preparation method and use thereof” (Shanghai Techwell Biopharmaceutical Co., Ltd., priority 2012, dated 2016):

How the values were obtained:
[1] = cited from earlier work
[2] = Stability test at 40° C., HPLC purity; format: physicochemical
Description: As used herein, “HPLC purity” refers to the percentage of the peak area of compound I obtained by area normalization method in the sum of all the peak area in HPLC detection applied to compound I, according to the obtained chromatogram.
(§1) Column: 4.6×250 mm 5 μm C18 column; flow rate: 2 ml/min; injection volume: 10 μl; column temperature: 35° C.; detection wavelength: 217 nm; mobile phase: acetonitrile/water/trifluoroacetic acid; Elution condition: water (60%): acetonitrile (40%): trifluoroacetic acid (0.1%); detection limit: 10 ng.
The purity mentioned in the following Examples is HPLC purity.
(§2) Compound I from example 2, example 3 and example 4 were obtained, and subjected to stability test at 40° C., respectively. […] Therefore, crystalline form B of compound I prepared by the method of the present invention has unique stability.

[3] = Storage stability of crystalline form B by HPLC (0° C., 20° C., 40° C.); format: physicochemical
Description: as §1, §2

In the case of `CCCCC[C@H](O)CC[C@@H]1[C@H]2Cc3cccc(OCC(=O)O)c3C[C@H]2C[C@H]1O` [Treprostinil], the “Stability under physiological conditions” value [1] is listed as “stable”.
With `CCCCC[C@H](O)CC[C@@H]1[C@H]2Cc3cccc(OCC(=O)O)c3C[C@H]2C[C@H]1O` [Example 4] the “Purity at 0 day (40° C.)” value ([2]; stability test at 40° C., 0 day (start)) was 99.90%, the “Purity at 10 day (40° C.)” value ([2]; stored at 40° C., 10 day) was 99.91% and the “Purity at 30 day (40° C.)” value ([2]; stored at 40° C., 30 day) was 99.89%. The “Purity at 90 day (40° C.)” value ([2]; stored at 40° C., 90 day) was 99.88%.
In the case of `CCCCC[C@H](O)CC[C@@H]1[C@H]2Cc3cccc(OCC(=O)O)c3C[C@H]2C[C@H]1O` [crystalline form B of compound I], the “Degradation on storage (HPLC)” value ([3]; stored at 0° C. for 12 months) is reported as “did not degrade at all”, the “Degradation on storage (HPLC)” value ([3]; stored at 20° C. for 6 months) is reported as “did not degrade at all” and the “Degradation on storage (HPLC)” value ([3]; stored at 40° C. for 2 months) is reported as “did not degrade at all”.
